Measurements from patent US9371365B2, “Modified compstatin with peptide backbone and C-terminal modifications” (The Trustees of the University of Pennsylvania, priority 2009, dated 2016).
Read-outs that look alike come from different tables or passages of the source. Bridge positions count the residues as written; N and C are the ends. Square brackets hold non-standard residues; d marks the D form. Peptide text beside a SMILES is read from it. Trp(1-Me) = Cn1cc(C[C@H](N)C(=O)O)c2ccccc21; NMeY = CN[C@@H](Cc1ccc(O)cc1)C(=O)O; NMeV = CN[C@H](C(=O)O)C(C)C; NMeA = CN[C@@H](C)C(=O)O; Nle = CCCC[C@H](N)C(=O)O; Sar = CNCC(=O)O

Columns and labels:
C3b = molecular target: T1, C3b (Homo sapiens, UniProt P01024); assay: SPR analysis of binding kinetics to immobilized C3b; details: for kd: 25° C., PBS-T; for kon: pH 7.4, read-out: ka; for rKD SPR / rka / rkd: relative to peptide 14
T1 construct: biotin (chemical biotinylation of C3b)
Method: (§1) The kinetics of the interaction between C3b and each compstatin analog was analyzed by SPR on a Biacore 3000 instrument (GE Healthcare Corp., Piscataway, N.J.) at 25° C. using PBS-T (10 mM sodium phosphate, 150 mM NaCl, 0.005% Tween-20, pH 7.4) as the running buffer, as described above. In brief, biotinylated C3b (30 μg/mL) was immobilized on a streptavidin-coated sensor chip, and a two-fold serial dilution series (1 μM-500 pM) of each analog was injected for 2 min at 30 μl/min, with a dissociation phase of 5-10 min. Peptide [Trp(Me)^4]-Ac-compstatin was included in each experimental series as an internal control and reference. Data analysis was performed using Scrubber (BioLogic Software, Campbell, Australia). The signals from an untreated flow cell and an ensemble of buffer blank injections were subtracted to correct for buffer effects and injection artifacts. Processed biosensor data were globally fitted to a 1:1 Langmuir binding model, and the equilibrium dissociation constant (KD) was calculated from the equation KD=kd/ka. Peptide solutions were injected in duplicate in every experiment, and each screening assay was performed at least twice.
as §1, with “in Example 1.” for “above.”, “μg/ml)” for “μg/mL)”, “Peptide [Trp(Me)^4]-Ac-compstatin was included in each experimental series as an internal control and reference.” left out

C3 = molecular target: T2, C3 (Homo sapiens, UniProt P01024); assay: ITC analysis of binding to C3; details: for ΔH / −TΔS / ΔG: ITC; for ΔG: ΔG=ΔH−TΔS; for rKD ITC / ΔΔG / ΔΔH / −TΔΔS: relative to peptide 14
T2 construct: C3 was purified from fresh human plasma; from tissue; host or cells: fresh human plasma (blood bank of the Hospital of the University of Pennsylvania)
Method: C3 was purified from fresh human plasma obtained from the blood bank of the Hospital of the University of Pennsylvania. In brief, the plasma was fractionated with 15% (w/v) PEG 3350, and the pellet was resuspended in 20 mM phosphate buffer, pH 7.8, and then subjected to anion-exchange chromatography on a DEAE-HR 40 column (50×5 cm; Millipore Inc., Billerica, Mass.) with the same buffer. Proteins were eluted with 6 L of a linear gradient (15-70%) of 20 mM phosphate buffer, pH 7.8, containing 500 mM NaCl. C3 was further purified on a size-exclusion Superdex 200 26/60 column (Amersham Biosciences) and a Mono S column (Amersham Biosciences) to separate C3 from C3(H2O).
All titrations were performed in PBS (10 mM phosphate buffer with 150 mM NaCl, pH 7.4) at 25° C. using multiple peptide injections of 2-7 μL each. The raw isotherms were corrected for the heats of dilution by subtracting the isotherms representing peptide injections into the buffer. The resulting isotherms were fitted to a single site of sites models using Origin 7.0 software, and the model that produced the lowest χ^2 value was deemed to be appropriate for the respective data set. The Gibbs free energy was calculated as ΔG=ΔH−TΔS. Each experiment was repeated at least twice.

[1] = system: classical pathway of complement; assay: Inhibition of classical pathway complement activation, ELISA in human serum; format: biochemical; details: for IC50: read-out: IC50; for rP: relative potency compared to peptide 14; for inhibition of complement activation, result in words: ELISA, N-methylation scan
Method: The ability of the compstatin analogs to inhibit the activation of the classical pathway of complement was assessed by ELISA (Mallik et al., 2005, J Med Chem 48:274-86). In brief, complement was activated in human serum using an antigen-antibody complex in the presence or absence of compstatin analogs, and the deposition of C3 fragments on the plate surface was detected using an HRP-conjugated polyclonal anti-C3 antibody. […] The percent inhibition was plotted against the peptide concentration, and the resulting data set was fitted to the logistic dose-response function using Origin 7.0 software. IC50 values were obtained from the fitted parameters that produced the lowest χ^2 value. Each analog was assayed at least three to seven times.
The ability of the compstatin analogs to inhibit the activation of the classical pathway of complement was assessed by ELISA as described in Example 1. Each conjugate was assayed at least three times.

T2 sequence (P01024 23-667 limits assumed): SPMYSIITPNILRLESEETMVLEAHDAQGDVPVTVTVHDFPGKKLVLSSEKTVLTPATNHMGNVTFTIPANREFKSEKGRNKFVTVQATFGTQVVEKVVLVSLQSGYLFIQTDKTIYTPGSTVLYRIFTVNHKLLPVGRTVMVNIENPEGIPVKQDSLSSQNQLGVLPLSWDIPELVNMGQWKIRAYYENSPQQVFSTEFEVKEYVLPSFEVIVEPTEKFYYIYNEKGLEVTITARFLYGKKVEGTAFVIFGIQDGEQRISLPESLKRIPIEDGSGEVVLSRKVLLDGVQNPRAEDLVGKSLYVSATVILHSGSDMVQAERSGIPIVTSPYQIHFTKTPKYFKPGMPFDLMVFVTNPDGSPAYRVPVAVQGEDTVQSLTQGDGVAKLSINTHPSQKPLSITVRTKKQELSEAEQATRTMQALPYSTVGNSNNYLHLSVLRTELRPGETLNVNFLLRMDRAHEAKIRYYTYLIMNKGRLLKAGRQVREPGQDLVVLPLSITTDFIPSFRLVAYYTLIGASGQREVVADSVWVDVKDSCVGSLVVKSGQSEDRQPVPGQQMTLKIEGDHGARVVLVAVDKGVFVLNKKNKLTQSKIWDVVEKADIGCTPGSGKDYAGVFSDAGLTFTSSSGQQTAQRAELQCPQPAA
T2 sequence (P01024 672-1663 limits assumed): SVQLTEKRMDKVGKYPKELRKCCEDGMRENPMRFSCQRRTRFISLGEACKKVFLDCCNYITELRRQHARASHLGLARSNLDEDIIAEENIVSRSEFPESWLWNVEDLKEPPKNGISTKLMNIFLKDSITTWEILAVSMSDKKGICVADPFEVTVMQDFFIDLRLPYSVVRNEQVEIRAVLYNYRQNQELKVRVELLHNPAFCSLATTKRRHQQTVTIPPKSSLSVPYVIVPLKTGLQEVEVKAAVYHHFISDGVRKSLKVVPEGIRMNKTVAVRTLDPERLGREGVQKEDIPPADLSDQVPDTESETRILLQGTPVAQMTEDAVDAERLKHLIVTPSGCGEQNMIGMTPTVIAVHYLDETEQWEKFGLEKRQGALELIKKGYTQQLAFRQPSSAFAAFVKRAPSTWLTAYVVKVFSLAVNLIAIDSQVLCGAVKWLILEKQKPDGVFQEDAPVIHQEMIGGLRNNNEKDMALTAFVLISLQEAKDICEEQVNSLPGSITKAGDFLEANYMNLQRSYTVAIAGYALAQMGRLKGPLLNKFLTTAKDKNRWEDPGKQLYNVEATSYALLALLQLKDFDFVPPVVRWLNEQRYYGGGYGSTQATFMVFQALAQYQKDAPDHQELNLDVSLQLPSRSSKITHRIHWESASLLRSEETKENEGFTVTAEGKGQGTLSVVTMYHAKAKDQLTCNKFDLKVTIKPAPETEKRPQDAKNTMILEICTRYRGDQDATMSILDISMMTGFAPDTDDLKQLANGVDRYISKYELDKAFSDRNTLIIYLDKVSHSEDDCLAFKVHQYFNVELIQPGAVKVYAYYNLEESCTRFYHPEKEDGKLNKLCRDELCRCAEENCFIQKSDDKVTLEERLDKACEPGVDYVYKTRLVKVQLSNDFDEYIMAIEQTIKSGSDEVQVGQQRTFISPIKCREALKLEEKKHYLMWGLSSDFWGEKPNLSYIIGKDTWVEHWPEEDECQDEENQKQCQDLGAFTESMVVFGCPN
T1 sequence (P01024 23-667 limits assumed): as the sequence (P01024 23-667 limits assumed) above
T1 sequence (P01024 749-1663 limits assumed): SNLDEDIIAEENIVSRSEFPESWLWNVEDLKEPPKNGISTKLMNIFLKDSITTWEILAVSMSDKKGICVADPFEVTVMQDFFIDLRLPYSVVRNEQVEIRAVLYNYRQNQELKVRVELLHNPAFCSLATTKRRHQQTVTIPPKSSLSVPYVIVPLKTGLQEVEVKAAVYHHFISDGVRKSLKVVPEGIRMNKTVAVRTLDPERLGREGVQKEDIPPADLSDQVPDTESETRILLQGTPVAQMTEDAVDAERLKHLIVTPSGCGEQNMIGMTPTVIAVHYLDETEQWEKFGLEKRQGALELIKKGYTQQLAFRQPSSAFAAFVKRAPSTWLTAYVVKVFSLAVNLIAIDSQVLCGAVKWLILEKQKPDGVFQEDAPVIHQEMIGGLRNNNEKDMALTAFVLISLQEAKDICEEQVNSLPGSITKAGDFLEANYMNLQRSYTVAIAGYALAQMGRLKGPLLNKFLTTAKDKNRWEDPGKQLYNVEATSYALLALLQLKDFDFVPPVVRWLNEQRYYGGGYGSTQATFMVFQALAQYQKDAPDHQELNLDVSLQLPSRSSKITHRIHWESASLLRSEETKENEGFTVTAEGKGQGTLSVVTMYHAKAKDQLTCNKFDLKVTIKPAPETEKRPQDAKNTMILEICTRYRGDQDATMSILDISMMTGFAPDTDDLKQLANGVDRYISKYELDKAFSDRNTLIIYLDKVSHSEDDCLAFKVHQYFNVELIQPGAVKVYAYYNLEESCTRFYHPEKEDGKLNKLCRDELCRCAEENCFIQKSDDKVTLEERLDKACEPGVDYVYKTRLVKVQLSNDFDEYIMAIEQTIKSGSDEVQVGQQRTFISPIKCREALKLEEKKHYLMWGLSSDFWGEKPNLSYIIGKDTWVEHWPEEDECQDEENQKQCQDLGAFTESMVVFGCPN

Row | Molecule | kd (C3b; SPR) | kon (C3b) | rKD SPR (C3b) | rka (C3b) | rkd (C3b) | ΔH (C3) | −TΔS (C3) | ΔG (C3) | rKD ITC (C3) | ΔΔG (C3) | ΔΔH (C3) | −TΔΔS (C3) | IC50 ([1]; Table 1-2) | IC50 ([1]; exemplary analogs table) | rP [1] | fold stronger affinity than peptide 14 (C3b; SPR) | inhibition of complement activation, result in words [1]
1 | CC[C@H](C)[C@H](NC(=O)[C@@H]1CSSC[C@H](NC(=O)[C@@H](NC(C)=O)[C@@H](C)CC)C(=O)N[C@@H](C(C)C)C(=O)N[C@@H](Cc2cn(C)c3ccccc23)C(=O)N[C@@H](CCC(N)=O)C(=O)N[C@@H](CC(=O)O)C(=O)N[C@@H](Cc2c[nH]c3ccccc23)C(=O)NCC(=O)N[C@@H](C)C(=O)N[C@@H](Cc2c[nH]cn2)C(=O)N[C@@H](CCCNC(=N)N)C(=O)N1)C(N)=O [Peptide 16] | 11.0 10^−3/s | 1e+06 M⁻¹ s⁻¹ | 1.1 | 1.0 | 1.0 | -16.6 kcal/mol | 5.7 kcal/mol | -10.9 kcal/mol | 1.2 | -0.2 kcal/mol | 1.0 kcal/mol | -1.3 kcal/mol |  |  |  |  | 
2 | CC[C@H](C)[C@H](NC(C)=O)C(=O)N[C@H]1CSSC[C@@H](C(=O)N[C@@H](CC(C)C)C(N)=O)NC(=O)[C@H](CCCNC(=N)N)NC(=O)[C@H](Cc2c[nH]cn2)NC(=O)[C@H](C)NC(=O)CN(C)C(=O)[C@H](Cc2c[nH]c3ccccc23)NC(=O)[C@H](CC(=O)O)NC(=O)[C@H](CCC(N)=O)NC(=O)[C@H](Cc2cn(C)c3ccccc23)NC(=O)[C@H](C(C)C)NC1=O [Peptide 18, Ac−Ic[CV(^1−MeW)QDW(^N−MeG)AHRC]L-NH2] (Ac-ICV[Trp(1-Me)]QDW[Sar]AHRCL-NH2; disulfide 2-12) | 6.0 10^−3/s | 1.3e+06 M⁻¹ s⁻¹ | 2.6 | 1.3 | 1.9 |  |  |  |  |  |  |  | 108 nM | 108 nM | 1.9 |  | 
3 | CCCC[C@H](NC(=O)[C@@H]1CSSC[C@H](NC(=O)[C@@H](NC(C)=O)[C@@H](C)CC)C(=O)N[C@@H](C(C)C)C(=O)N[C@@H](Cc2cn(C)c3ccccc23)C(=O)N[C@@H](CCC(N)=O)C(=O)N[C@@H](CC(=O)O)C(=O)N[C@@H](Cc2c[nH]c3ccccc23)C(=O)N(C)CC(=O)N[C@@H](C)C(=O)N[C@@H](Cc2c[nH]cn2)C(=O)N[C@@H](CCCNC(=N)N)C(=O)N1)C(N)=O [Peptide 19, Ac−Ic[CV(^1−MeW)QDW(^N−MeG)AHRC](Nle)-NH2] (Ac-ICV[Trp(1-Me)]QDW[Sar]AHRC[Nle]-NH2; disulfide 2-12) | 6.6 10^−3/s | 1.5e+06 M⁻¹ s⁻¹ | 2.7 | 1.5 | 1.7 |  |  |  |  |  |  |  | 109 nM | 109 nM | 1.9 |  | 
4 | CC[C@H](C)[C@H](NC(C)=O)C(=O)N[C@H]1CSSC[C@@H](C(=O)N(C)[C@H](C(N)=O)[C@@H](C)CC)NC(=O)[C@H](CCCNC(=N)N)NC(=O)[C@H](Cc2c[nH]cn2)NC(=O)[C@H](C)NC(=O)CN(C)C(=O)[C@H](Cc2c[nH]c3ccccc23)NC(=O)[C@H](CC(=O)O)NC(=O)[C@H](CCC(N)=O)NC(=O)[C@H](Cc2cn(C)c3ccccc23)NC(=O)[C@H](C(C)C)NC1=O [Peptide 21, Ac−Ic[CV(^1−MeW)QDW(^N−MeG)AHRC](^N−MeI)-NH2] | 3.5 10^−3/s | 1.5e+06 M⁻¹ s⁻¹ | 5.2 | 1.5 | 3.2 | -17.1 kcal/mol | 5.7 kcal/mol | -11.4 kcal/mol | 3.3 | -0.7 kcal/mol | 0.5 kcal/mol | -1.3 kcal/mol | 62 nM | 62 nM | 3.3 | more than 5 fold | 
5 | Ac-I[C(NMe)VYQDWGAHRC]T-NH2 (Ac-IC[NMeV]YQDWGAHRCT-NH2; disulfide 2-12; SMILES CC[C@H](C)[C@H](NC(C)=O)C(=O)N[C@H]1CSSC[C@@H](C(=O)N[C@H](C(N)=O)[C@@H](C)O)NC(=O)[C@H](CCCNC(=N)N)NC(=O)[C@H](Cc2c[nH]cn2)NC(=O)[C@H](C)NC(=O)CNC(=O)[C@H](Cc2c[nH]c3ccccc23)NC(=O)[C@H](CC(=O)O)NC(=O)[C@H](CCC(N)=O)NC(=O)[C@H](Cc2ccc(O)cc2)NC(=O)[C@H](C(C)C)N(C)C1=O) [Peptide 3] |  |  |  |  |  |  |  |  |  |  |  |  |  |  |  |  | completely inactive
6 | Ac-I[CV(NMe)YQDWGAHRC]T-NH2 (Ac-ICV[NMeY]QDWGAHRCT-NH2; disulfide 2-12; SMILES CC[C@H](C)[C@H](NC(C)=O)C(=O)N[C@H]1CSSC[C@@H](C(=O)N[C@H](C(N)=O)[C@@H](C)O)NC(=O)[C@H](CCCNC(=N)N)NC(=O)[C@H](Cc2c[nH]cn2)NC(=O)[C@H](C)NC(=O)CNC(=O)[C@H](Cc2c[nH]c3ccccc23)NC(=O)[C@H](CC(=O)O)NC(=O)[C@H](CCC(N)=O)NC(=O)[C@H](Cc2ccc(O)cc2)N(C)C(=O)[C@H](C(C)C)NC1=O) [Peptide 4] |  |  |  |  |  |  |  |  |  |  |  |  |  |  |  |  | completely inactive
7 | Ac-I[CVYQDWG(NMe)AHRC]T-NH2 (Ac-ICVYQDWG[NMeA]HRCT-NH2; disulfide 2-12; SMILES CC[C@H](C)[C@H](NC(C)=O)C(=O)N[C@H]1CSSC[C@@H](C(=O)N[C@H](C(N)=O)[C@@H](C)O)NC(=O)[C@H](CCCNC(=N)N)NC(=O)[C@H](Cc2c[nH]cn2)NC(=O)[C@H](C)N(C)C(=O)CNC(=O)[C@H](Cc2c[nH]c3ccccc23)NC(=O)[C@H](CC(=O)O)NC(=O)[C@H](CCC(N)=O)NC(=O)[C@H](Cc2ccc(O)cc2)NC(=O)[C@H](C(C)C)NC1=O) [Peptide 9] |  |  |  |  |  |  |  |  |  |  |  |  |  |  |  |  | completely inactive
